Target: G-protein coupled receptor 55 (Homo sapiens, UniProt Q9Y2T6)
Experiment: GPR55 antagonists, SAR follow-up, counter-screen for GPR35 antagonist project, imaging, image-based (AID 2397)
Settings: inactive by the depositor's call

G-protein coupled receptor 55, sequence (Q9Y2T6 whole entry): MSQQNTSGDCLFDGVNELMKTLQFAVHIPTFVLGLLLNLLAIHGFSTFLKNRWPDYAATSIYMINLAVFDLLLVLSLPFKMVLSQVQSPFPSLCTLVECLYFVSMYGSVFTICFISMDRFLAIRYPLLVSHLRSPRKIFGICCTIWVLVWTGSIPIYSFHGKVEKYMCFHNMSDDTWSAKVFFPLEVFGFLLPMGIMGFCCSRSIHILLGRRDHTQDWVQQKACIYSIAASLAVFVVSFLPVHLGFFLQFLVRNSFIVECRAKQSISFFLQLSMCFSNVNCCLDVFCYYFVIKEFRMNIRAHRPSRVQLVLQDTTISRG

- IC50: 21.7 µM
SMILES: CC(/C=C1\SC(=S)N(CCCC(=O)Nc2ccc(C(=O)O)c(O)c2)C1=O)=C\c1ccccc1 [2-hydroxy-4-[[4-[(5Z)-5-[(E)-2-methyl-3-phenylprop-2-enylidene]-4-oxo-2-sulfanylidene-3-thiazolidinyl]-1-oxobutyl]amino]benzoic acid]
